The nature of data set [1]: Electrochemical properties (cyclic voltammetry, impendency). It is filed as physicochemical. An excerpt:
The cyclic voltammetry (CV) curve of 5 kD-PEG-KA7/PEDOT:PSS is typical of PEDOT:PSS-based materials, showing the oxidation peak between +500 mV and +650 mV and reduction occurring between −100 mV and −50 mV (FIG. 3A). The structure-function relationship between chemical composition of the modular system and electrochemical properties was investigated

Data set [2] in a line: Drug encapsulation and release from conductive hydrogels. It is filed as physicochemical. As to the method:
Because the networks of PEG-peptide/PEDOT:PSS hydrogel and the PEG-peptide/rGO:PEDOT:PSS hydrogels are amphipathic, they can bind to both hydrophobic and charged hydrophilic compounds. The encapsulation of hydrophilic and hydrophobic drug compounds was tested. PEDOT:PSS was premixed with either hydrophilic compound doxorubicin or hydrophobic compound paclitaxel, followed by adding 5 kD-PEG-KA7. […] Doxorubicin can be encapsulated with a concentration of 0.8 mg/mL, while 0.1 mg/mL paclitaxel can be encapsulated into the hydrogel. Paclitaxel in excess formed precipitate at the bottom. rGO:PEDOT:PSS was premixed with either doxorubicin or paclitaxel, followed by adding starPEG-KA7. […] Doxorubicin can be encapsulated with a concentration as high as 0.8 mg/mL, while 1.0 mg/mL paclitaxel can be encapsulated into the hydrogel. The hydrogels loaded with drugs were then incubated in PBS, and the release of drugs was monitored.

A further data set concerns HeLa cells. Put plainly: Cytotoxic effect of drug released from drug-encapsulating hydrogels. To be noted: drug released from rGO:PEDOT:PSS/starPEG-KA7 hydrogels, diluted 10× or 100×. It is filed as cell-based. As to the method: The released compounds were diluted 10× or 100× times for the treatment.
Data set [3] is described as follows: Hydrogel formation by mixing PEG-peptide conjugate with anionic polymer. Conditions: (BX)n oligopeptide coupled to PEG-5 k (FIG. 1B). It is filed as physicochemical. As to the method:
14-kD-heparin ([…], 2.5 mM) and star-PEG-peptide conjugates (6.25 mM, 3.125 mM) were dissolved in physiologic phosphate buffer solution (1×PBS) water or cell culture medium with 2% fetal bovine serum (FBS). These solutions were dissolved in a ratio of 1:4 heparin:star-PEG-peptide-conjugate by obtaining 0.5 mM or 5 mM 14-kD-heparin and 2.5 mM or 5 mM star-PEG-peptide. The ligand/mol ratio was 2:1, 1:1 and 1:5 relative to the mol ratio of 14-kD-heparin and the star-PEG-peptide-conjugate. The mixtures were incubated within a time frame of one hour to overnight at room temperature […]. The gelling time spanned from present up to several hours depending on the applied peptide motif. A hydrogel was formed when it survived the addition of physiological phosphate buffer solution (1×PBS) pH 7.4 to the mixture after the incubation of the mixture over the prior night without mixing with the added solution.
L1-(BX)n peptides comprising a (BX)n peptide selected from KA7, KA5, KA3, KS7, KG7, RA7, and RG7, where X is alanine, glycine or serine (FIG. 1B), were synthesized. The thiol group of cysteine was used to link the peptides to maleimide-functionalized PEG by Michael-type addition reaction, while the tryptophan was used to facilitate the monitoring during HPLC purification and quantification (supporting information). It was first tested whether sulfated oligosaccharide could be replaced by PEDOT:PSS to form a stable hydrogel. starPEG-KA7 in PBS was mixed with PEDOT:PSS aqueous solution to final concentrations of 2.5 mM and 1%, respectively. […] Without conjugation to the oligopeptide, neither maleimide-functionalized nor amino-functionalized PEG formed a hydrogel with PEDOT:PSS.
Moreover, it is much easier to separate a linear PEG chain with two peptides from that with only one peptide, as compared to purify the starPEG with 4 peptides from a mixture of lower degree of modification. Therefore, in the following study, the hydrogel formation using linear PEG-peptides was investigated. […] To incorporate a cell adhesive motiv into the modular network, the RGDSP (SEQ ID NO: 25) sequence was added as part of the linker to the KA7 oligopeptide. […] L2 contains the RGDSP (SEQ ID NO: 25) sequence.
To test whether the non-covalent assembling approach can also be applied to other conductive polymers, the hydrogel formation using PEG-peptide or starPEG-peptide with graphene derivatives was investigated. While graphene has very poor water solubility, graphene oxide (GO) was used. […] Apparently, the carboxylic acid presented on graphene is not sufficient to form stable crosslinking with positively charged peptide-polymer.
Reducing GO in the present of PSS also led to water-soluble and conductive material rGO/PSS. Hydrogel formation using rGO:PSS or rGO:PEDOT:PSS (FIG. 5A) was tested. […]

Where [4] appears, read: 5 kD-PEG-KA7/PEDOT:PSS hydrogel.
[5] abbreviates: rGO:PEDOT:PSS/starPEG-KA7 hydrogel.
Where [6] appears, read: the hydrogel (description, type not specified).

The results in this text go back to patent US11166907B2, “Non-covalently assembled conductive hydrogel” (DENOVOMATRIX GMBH, priority 2017, dated 2021).

Turning to heparin, the “effect on conductivity of hydrogel” value in data set [1] (1 mM heparin in hydrogel of 1% PEDOT:PSS and 2.5 mM starPEG-KA7, versus 1% PEDOT:PSS and 2.5 mM 5 kD-PEG-KA7) was “enhanced the conductivity”.
On to `COc1cccc2c1C(=O)c1c(O)c3c(c(O)c1C2=O)C[C@@](O)(C(=O)CO)C[C@@H]3O[C@H]1C[C@H](N)[C@H](O)[C@H](C)O1` [Doxorubicin, doxorubicin], for which the “concentration that can be encapsulated” value in data set [2] (setting [4]), in data set [2] (setting [5]) and in data set [2] (setting [6]) was 800 µg/mL in each case. For the same compound, the “effect on HeLa cells” value with HeLa cells is listed as “cytotoxic effect”.
Take RARARARARARARA [RA7]: the “hydrogel formation with PEDOT:PSS” value in data set [3] is reported as “formed homogeneous hydrogels”.
For CWGGRGDSP [L2, 14], the “change of impendency / conductivity compared to 5 kD-PEG-KA7/PEDOT:PSS” value in data set [1] (alanine replaced by serine, or RGDSP added within linker) is “minor effect on the conductivity”.
`CC(=O)O[C@H]1C(=O)[C@@]2(C)[C@H]([C@H](OC(=O)c3ccccc3)[C@]3(O)C[C@H](OC(=O)[C@H](O)[C@@H](NC(=O)c4ccccc4)c4ccccc4)C(C)=C1C3(C)C)[C@]1(OC(C)=O)CO[C@@H]1C[C@@H]2O` [paclitaxel]: the entries for the “concentration that can be encapsulated” value in data set [2] (setting [4]), in data set [2] (setting [5]) and in data set [2] (setting [6]) were 100 µg/mL, 1000 µg/mL and 1000 µg/mL, respectively. Besides, the “effect on HeLa cells” value in the data set on HeLa cells was “cytotoxic effect”.
In the case of KAKAKAKAKA [KA5], the “hydrogel formation with PEDOT:PSS” value in data set [3] was “formed homogeneous hydrogels”.
In the case of KAKAKAKAKAKAKA [KA7], the “hydrogel formation with PEDOT:PSS” value in data set [3] was “formed homogeneous hydrogels”.
As to KSKSKSKSKSKSKS [KS7], in data set [3], the “hydrogel formation with PEDOT:PSS” value is listed as “formed homogeneous hydrogels”.
